The results in this text go back to article PMC10055714, “The Hypolipidemic Characteristics of a Methanol Extract of Fermented Green Tea and Spore of Eurotium cristatum SXHBTBU1934 in Golden Hamsters” (Nutrients, 2023).

For series [1], the system named is oleic acid-induced HepG2 cell line model. As to the kind of experiment: Bodipy staining of lipid accumulation in oleic acid-induced HepG2 cells. Format: cell-based. As to conditions: Homo sapiens, 24 h, OA-induced HepG2, read-out: Inhibitory Rate of lipid accumulation; for inhibition at 100 µg/mL: 100 μg/mL. As for the experimental part: After treatment with compounds for 24 h in a 96-well plate, the supernatant of the HepG2 cells was discarded and cells were washed twice with PBS, then the cells were fixed with 4% paraformaldehyde at room temperature for 20 min. After removing the fixative reagent, the cells were washed twice with PBS. HepG2 cells were stained with 100 μL Bodipy (2 μg/mL, Thermo Fisher Scientific (Waltham, MA, USA)) in the dark at 25 °C for 30 min [30]. The fluorescence was measured using a fluorescence plate reader (Ex = 500 nm, Em = 550 nm, POLARstar, BMG Labtech (Offenburg, Germany)). The inhibition rate was calculated by comparison with the control group which was just treated with DMSO.

The nature of series [2]: CCK-8 cell viability assay. As to conditions: human, HepG2 cells. (In general: Tetrazolium assays rely on reduction of a dye to a coloured formazan, in cell work by metabolically active cells.)
Experimental: Human hepatoma HepG2 cells were obtained from the Beijing Union Medical Cell Resource Center (Basic Medical Cell Center, Institute of Basic Medical Sciences, Chinese Academy of Medical Sciences). The cells were cultured in DMEM containing 10% FBS and 1% penicillin–streptomycin and incubated with 5% CO2 at 37 °C. Cells were allowed to grow to approximately 80% confluency and were sub-cultured at a ratio of 1:3 [27]. In this study, to simulate the process of nonalcoholic fatty liver disease in vitro, 0.2 mM oleic acid (OA) was added to the culture medium for 48 h to induce human HepG2 to establish a nonalcoholic fatty liver cell model [28].
HepG2 cells were seeded into 96-well plates after achieving logarithmic growth and cultured overnight at 37 °C with 5% CO2. After treatment with different concentrations of compounds (dissolved in DMSO) for 24 h, 10 μL CCK-8 solution (Cell Counting Kit-8, Sigma-Aldrich (St. Louis, MO, USA)) was added to each well and the plate was incubated for 2 h in the incubator. Then, the absorbance at 450 nm was measured using a microplate reader. The normal control group was treated with the same amount of DMSO as the experiment group [29]. Cell viability was calculated by: cell viability (%) = (ODdrug/ODcontrol) × 100%.
Series [3] concerns oleic acid-induced HepG2 cell line model. As to the kind of experiment: Oil Red O staining of lipid accumulation in oleic acid-induced HepG2 cells. In kind it is cell-based. As to conditions: Homo sapiens; Oil Red O assay, OA-induced HepG2, 24 h, area of lipid droplets; read-out: IC50 against lipid accumulation. On the procedure: HepG2 cells were treated with different concentrations of compounds for 24 h, then were washed twice with PBS and fixed with 4% paraformaldehyde for 15–20 min. The cells were washed with PBS and stained with Oil Red O solution (50 µL per well, Sigma-Aldrich) at 25 °C for 1 h. After washed with PBS for 3–5 times, the lipid droplets and cell morphology were observed by a light microscope and photographed. The area of lipid droplets was statistically compared for IC50 calculation with the control group which was treated with DMSO using Image J software.

Take `C=CC(C)(C)c1[nH]c2c(CC=C(C)C)cccc2c1/C=C1\NC(=O)[C@H](C)NC1=O` [Compound 4, variecolorin G]: the inhibition at 100 µg/mL in series [1] was -15.3%.

A word on the viability: it is a read-out of living cells in per cent, often relative to untreated cells. Consider `C=CC(C)(C)c1[nH]c2c(CC=C(C)C)cc(CC=C(C)C)cc2c1C[C@@H]1NC(=O)[C@H](C)NC1=O` [Compound 5, echinulin], for which the inhibition at 25 µg/mL in series [1] (25 μg/mL) stood at 5.46%. For the same compound, the viability at 24 h, 25 μg/mL in series [2] was determined as 94.5%.

The IC50 is the concentration that inhibits the measured activity by half. Take `C=CC(C)(C)c1[nH]c2c(CC3OC3(C)C)cccc2c1C=C1NC(=O)C(C)NC1=O` (centres unmarked) [Compound 1, variecolorin P]: the inhibition at 100 µg/mL in series [1] is 37.3%. Besides, the IC50 in series [3] came to 127 nM. For the same compound, in series [2], the viability at 24 h, 100 μg/mL amounted to 110%.

Consider `C=CC(C)(C)c1[nH]c2cc(CC=C(C)C)ccc2c1/C=C1\NC(=O)[C@H](C)NC1=O` [Compound 3, neoechinulin D], for which the inhibition at 100 µg/mL in series [1] is -67.3%. The viability at 24 h, 100 μg/mL in series [2] turned out to be 11.2%.
